“Also recorded” adds a separate entry of the source.
Assays:
[1] = tested on: β-Gal-specific IgG isotypes; experiment: IgG isotype ELISA (IgG, IgG1, IgG2a) in sera of vaccinated mice; type: in vivo, Balb/c mice; conditions: for enhancement of β-Galactosidase-specific IgG secretion vs β-Gal alone / increase of β-Gal-specific IgG1 secretion vs β-Gal alone / increase of β-Gal-specific IgG2a secretion vs β-Gal alone / increase of β-Gal specific IgG1 secretion vs β-Gal alone / secretion of IgG2a isotype vs β-Gal alone: 10 μg glycolipid; for enhancement of β-Galactosidase-specific IgG2a isotype vs β-Gal alone: 20 or 30 μg glycolipid, dose-dependent; for increase of β-Gal specific IgG1 secretion vs β-Gal alone / secretion of IgG2a isotype vs β-Gal alone: s.c. (parenteral)
Protocol: Co-administration of β-Gal with 10 μg glycolipids 1, 5 and 6 induced β-Gal-specific systemic IgG responses in Balb/c mice. Balb/c mice were immunized by the i.n. or s.c. route with β-Gal alone or together with glycolipids 1, 5 and 6 three times at 2-wk intervals. 10 days after the final immunization, the immunized mice were sacrificed. The levels of β-Gal-specific titers of IgG isotypes were determined in Sera of mice immunized by the i.n. (A) and s.c. (B) route. […] Bars represent mean Ab titer or amount±SE in each group. Each group consists of five mice. Data are representative of three separate experiments.
Co-administration of β-Gal with 20 or 30 μg glycolipids 5 and 6, respectively, induced β-Gal-specific systemic IgG responses in Balb/c mice. Balb/c mice were immunized by the i.n. or s.c. route with β-Gal alone or together with glycolipids 5 and 6 three times at 2-wk intervals. 10 days after the final immunization, the immunized mice were sacrificed. The levels of β-Gal-specific titers of IgG isotypes were determined in Sera of mice immunized by the i.n. (A) and s.c. (B) route. […] The parenteral administration of with β-Gal co-administered with 20 μg glycolipids 5 and 6 enhanced the β-Galactosidase-specific IgG1 isotype titer (>250000) in comparison to animals which were immunized with β-Gal alone. Bars represent mean Ab titer or amount±SE in each group. Each group consists of five mice. Data are representative of two separate experiments.
Isotyp ELISA: 96-well Nunc-Immuno MaxiSorp assay plates (Nunc, Roskilde, Denmark) were coated with 100 μl of β-Gal (Boehringer, Mannheim, Germany) at 5 μg/ml in 0.05 M carbonate buffer (pH 8.2) per well. Serial two-fold dilutions of sera or lavages in PBS with 1% BSA and 0.05% Tween 20 were added (100 μl/well), and plates incubated for 2 h at 37° C. After washing, biotin-conjugated rat anti-mouse IgG1 or IgG2a (Pharmingen, Hamburg, Germany) were added to determine IgG subclasses. Plates were incubated for an additional 1 h at 37° C. After four washes, 100 μl of peroxidase-conjugated streptavidin (Pharmingen) was added to cells and plates incubated at 37° C. for 30 min. After four washes, reactions were developed with ABTS in 0.1 M citrate-phosphate buffer (pH 4.35) containing 0.01% H2O2. To determine the concentration of IgG subclasses in serum, standard curves were obtained by coating the wells with an isotype-specific goat anti-mouse IgG, and then by incubating with purified mouse IgG1 or IgG2a antibodies (Dianova, Hamburg, Germany).

[2] = Tolerability of co-administered glycolipids: body weight and behaviour tested daily; type: in vivo
Protocol: The body weight and the behaviour of the animals were tested daily. The Balb/c mice were immunized by the mucosal (i.n.) or parenteral (s.c.) route with β-Gal alone or together with glycolipids 1, 5 and 6 three times at 2-wk intervals (day 1, 14 and 28). 10 days after the final immunization (day 38), the immunized mice were sacrificed.
Experimental protocol: six-eight weeks-old female BALB/c (H-2d) mice were purchased from Harlan Winkelmann GmbH (Borchen, Germany) and treated in accordance with local and European Community guidelines. Groups of 5 mice each were immunized on day 01, 14 and 28 with 30 μg of β-Gal (Boehringer, Mannheim, Germany), alone or with 10 μg of glycolipids 1, 5, or 6, respectively, see FIG. 2. For intranasal (i.n.) immunization, 10 μl were applied to each naris, whereas for the s.c. injection β-Gal with or without glycolipids 1, 5 or 6, respectively, was resuspended in a volume of 50 μl PBS per animal. Serum samples were collected at day 38 after immunization and stored at −20° C. prior to determination of β-Gal-specific antibodies. 96-well Nunc-Immuno MaxiSorp assay plates (Nunc, Roskilde, Denmark) were coated with 100 μl of β-Gal (Boehringer, Mannheim, Germany) at 5 μg/ml in 0.05 M carbonate buffer (pH 8.2) per well. Serial two-fold dilutions of sera or lavages in PBS with 1% BSA and 0.05% Tween 20 were added (100 μl/well), and plates incubated for 16 h at 37° C. After washing, biotinylated γ-chain-specific goat anti-mouse IgG (Sigma Chemie, Deisenhofen, Germany) was added, and plates were incubated for an additional 1 h at 37° C. After four washes, 100 μl of peroxidase-conjugated streptavidin (Pharmingen) was added to cells and plates incubated at 37° C. for 30 min. After four washes, reactions were developed with ABTS in 0.1 M citrate-phosphate buffer (pH 4.35) containing 0.01% H2O2.

[3] = i.n. co-administration with β-Gal (FIG. 9 and FIG. 10)
[4] = s.c. co-administration with β-Gal (FIG. 9 and FIG. 10)
[5] = co-administered with 30 μg β-Gal, i.n. and s.c., day 1, 14 and 28

Row | Compound | IgG1 / IgG2a isotype pattern (Th2 / Th1) [1, 3] | enhancement of β-Galactosidase-specific IgG secretion vs β-Gal alone ([1]; i.n.) | increase of β-Gal-specific IgG1 secretion vs β-Gal alone ([1]; i.n.) | increase of β-Gal-specific IgG2a secretion vs β-Gal alone ([1]; i.n.) | enhancement of β-Galactosidase-specific IgG2a isotype vs β-Gal alone ([1]; i.n.) [fold] | increase of β-Gal specific IgG1 secretion vs β-Gal alone [1] | secretion of IgG2a isotype vs β-Gal alone [1] | IgG1 / IgG2a isotype pattern (Th2 / Th1) [1, 4] | toxic side effects (body weight and behaviour) [2, 5] | enhancement of β-Galactosidase-specific IgG secretion vs β-Gal alone ([1]; s.c.) [fold] | toxic side effects (body weight and behaviour) ([2]; mouse, in vivo, sc)
1 | CCCCCCCCCCCCCCOCC(COCCCCCCCCCCCCCC)O[C@@H]1O[C@H](CO[C@H]2O[C@H](CO)[C@H](O)[C@H](O)[C@H]2O)[C@@H](O)[C@H](O)[C@H]1O [glycolipid 6, 1,3-di-O-tetradecyl-2-O-[6′-O-(α-D-galactopyranosyl)-β-D-glucopyranosyl]-sn-glycerol] | comparable expression of IgG1 and IgG2a isotypes | 8 fold | 24 fold | 1.8 fold | 7 | no effect | no enhanced secretion | dominant Th2 response | no toxic side effects; also recorded: no toxic side effects or changes in their behaviour | – | –
2 | CCCCCCCCCCCCCCOCC(COCCCCCCCCCCCCCC)O[C@@H]1O[C@H](CO)[C@@H](O[C@H]2O[C@H](CO)[C@@H](O)[C@H](O)[C@H]2O)[C@H](O)[C@H]1O [glycolipid 5, 1,3-Di-O-tetradecyl-2-O-[4′-O-(α-D-glucopyranosyl)-β-D-glucopyranosyl]-sn-glycerol] | dominant Th2 pattern | 29 fold | 50 fold | 6 fold | 7 | 2.2 fold | no enhanced secretion | dominant Th2 pattern | no toxic side effects; also recorded: no toxic side effects or changes in their behaviour | 7 | –
3 | CCCCCCCC/C=C\CCCCCCCCOCC(COCCCCCCCC/C=C\CCCCCCCC)O[C@@H]1O[C@H](CO)[C@@H](O[C@H]2O[C@H](CO)[C@@H](O)[C@H](O)[C@H]2O)[C@H](O)[C@H]1O (relative stereo) [glycolipid 1, 1,3-Di-O[cis-9-octadecenyl]-2-O-[4′-O-(α-D-glycopyranosyl)-β-D-glycopyranosyl]-sn-glycerol] | dominant Th2 pattern | no effect | no effect | no effect | – | 2.5 fold | no enhanced secretion | dominant Th2 pattern | – | – | no toxic side effects; also recorded: no toxic side effects or changes in their behaviour

— patent US8211463B2, “Use of glycolipids as adjuvants” (Helmholtz-Zentrum Fuer Infektionsforschung GmbH, priority 2006, dated 2012)
